For data set [1], the system named is IAPs (cIAP1, cIAP2, XIAP). Description: Immunoblotting of IAPs in MM.1S cells, overall degradation profile, time course and washout. The data set is classed as cell-based. As to conditions: 16 h, western blot, concentration (10 nM to 1 μM). As to the method: Next, we examined the persistence of IAP degradation in MM.1S cells after a single exposure to 1 μM of 9 and subsequent removal of the compound. […] The reliance on CRL2^VHL was assessed with a neddylation inhibitor MLN4924, which blocks the activity of CRLs (Figure S13A).

For data set [2], the target named is T1, plasma protein (HSA column) (Homo sapiens, UniProt P02768).
T1 construct: purchased
Description: Plasma protein binding estimated by HPLC on a […] HSA column. It is filed as in vitro ADME. As to conditions: CHIRALPAK HSA column (50 × 3 mm, 5 μm), estimated by an HPLC-based method, read-out: PPB (plasma protein binding) (converted). As for the experimental part: Plasma protein binding (% PPB) was estimated by correlating the logarithmic retention times of the analytes on a […] HSA 50 × 3 mm, 5 μm column with the literature-known % PPB values (converted into log K values) of the following drugs: warfarin, ketoprofen, budesonide, nizatidine, indomethacin, acetylsalicylic acid, carbamazepine, piroxicam, nicardipine, and cimetidine (for details, see Valko et al.).[67] The samples were dissolved in MeCN/DMSO 9:1 to achieve a final concentration of 0.5 mg/mL. Mobile phase A was 50 mM ammonium acetate adjusted to pH 7.4 with ammonia solution, while mobile phase B was iPrOH. The flow rate was set to 1.0 mL/min, the UV detector was set to 254 nm, and the column temperature was kept at 30 °C. After injecting 2 μL of the sample, a linear gradient from 100% A to 30% iPrOH in 5.4 min was applied. From 5.4 to 18 min, 30% iPrOH was kept, followed by switching back to 100% A in 1.0 min and a re-equilibration time of 6 min. With the aid of the calibration line (R^2 = 0.96), the log K values of new substances were calculated and converted to their % PPB values.

Data set [3] in a line: Log D7.4 measurement by chromatographic (fast-gradient HPLC) method. As to conditions: pH 7.4.
Description: The system was calibrated by plotting the retention times of six different drugs (atenolol, metoprolol, labetalol, diltiazem, triphenylene, and permethrin) versus their literature-known log D7.4 in a calibration line (R^2 = 0.99). Subsequently, the mean retention times of the analytes were taken to calculate their log D7.4 values with the aid of the calibration line. At least two independent measurements of each analyte were performed.
The target in another data set is XIAP (Homo sapiens, UniProt P98170). In words: Immunoblotting (western blot) quantification of XIAP levels in MM.1S cells. Particulars: MM1.S, 16 h, read-out: %remaining protein XIAP, MM.1S cells, 16 h treatment at 0.1 μM, normalized to loading control and DMSO. A general note: Immunoblotting shows a protein as a band on a membrane.
The target in the next data set is CRBN (Homo sapiens, UniProt Q96SW2). Description: Immunoblotting (western blot) quantification of CRBN levels in MM.1S cells. As to conditions: MM1.S, 16 h, read-out: %remaining protein CRBN.
The next data set deals with cIAP1 (Homo sapiens, UniProt Q13490). Description: Immunoblotting (western blot) quantification of cIAP1 levels in MM.1S cells. As to conditions: MM1.S, 16 h, read-out: %remaining protein cIAP1, MM.1S cells, 16 h treatment at 0.1 μM, normalized to loading control and DMSO.
The next data set addresses cIAP2 (Homo sapiens, UniProt Q13489). In words: Immunoblotting (western blot) quantification of cIAP2 levels in MM.1S cells. As to conditions: MM1.S, 16 h, read-out: %remaining protein cIAP2, MM.1S cells, 16 h treatment at 0.1 μM, normalized to loading control and DMSO.
The test system of another data set is IKZF3. In words: Immunoblotting (western blot) quantification of IKZF3 levels in MM.1S cells. Particulars: for %remaining protein IKZF3: 16 h treatment at 0.1 μM, normalized to loading control and DMSO.

Structures are written as SMILES.

Chain of cIAP2 (Q13489 whole entry): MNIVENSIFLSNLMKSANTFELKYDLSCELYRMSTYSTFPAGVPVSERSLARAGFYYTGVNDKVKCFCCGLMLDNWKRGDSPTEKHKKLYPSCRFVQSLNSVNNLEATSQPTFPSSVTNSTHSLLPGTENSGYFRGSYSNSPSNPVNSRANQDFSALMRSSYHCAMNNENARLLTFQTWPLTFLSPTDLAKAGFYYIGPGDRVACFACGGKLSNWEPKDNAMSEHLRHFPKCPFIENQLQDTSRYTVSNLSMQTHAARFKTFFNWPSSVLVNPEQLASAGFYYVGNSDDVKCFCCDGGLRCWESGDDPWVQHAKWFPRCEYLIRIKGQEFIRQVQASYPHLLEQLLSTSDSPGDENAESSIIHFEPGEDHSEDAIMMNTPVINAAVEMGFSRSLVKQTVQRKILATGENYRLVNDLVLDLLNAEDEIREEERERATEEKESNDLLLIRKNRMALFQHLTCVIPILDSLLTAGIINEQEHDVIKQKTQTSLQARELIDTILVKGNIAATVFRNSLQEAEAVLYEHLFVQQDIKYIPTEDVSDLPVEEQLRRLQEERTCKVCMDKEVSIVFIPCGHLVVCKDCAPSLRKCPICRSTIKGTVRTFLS
Chain of CRBN (Q96SW2 whole entry): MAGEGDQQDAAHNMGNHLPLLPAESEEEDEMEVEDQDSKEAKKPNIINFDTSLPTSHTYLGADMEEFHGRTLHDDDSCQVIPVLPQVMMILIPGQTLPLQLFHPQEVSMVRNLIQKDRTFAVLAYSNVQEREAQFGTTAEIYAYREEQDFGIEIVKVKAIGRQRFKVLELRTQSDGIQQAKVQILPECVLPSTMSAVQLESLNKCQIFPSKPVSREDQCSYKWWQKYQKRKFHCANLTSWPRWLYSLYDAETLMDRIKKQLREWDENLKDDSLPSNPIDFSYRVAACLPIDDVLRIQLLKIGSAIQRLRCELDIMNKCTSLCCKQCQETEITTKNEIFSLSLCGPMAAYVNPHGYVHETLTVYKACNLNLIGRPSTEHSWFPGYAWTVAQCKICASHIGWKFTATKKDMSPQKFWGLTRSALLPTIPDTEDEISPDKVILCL
Chain of XIAP (P98170 whole entry): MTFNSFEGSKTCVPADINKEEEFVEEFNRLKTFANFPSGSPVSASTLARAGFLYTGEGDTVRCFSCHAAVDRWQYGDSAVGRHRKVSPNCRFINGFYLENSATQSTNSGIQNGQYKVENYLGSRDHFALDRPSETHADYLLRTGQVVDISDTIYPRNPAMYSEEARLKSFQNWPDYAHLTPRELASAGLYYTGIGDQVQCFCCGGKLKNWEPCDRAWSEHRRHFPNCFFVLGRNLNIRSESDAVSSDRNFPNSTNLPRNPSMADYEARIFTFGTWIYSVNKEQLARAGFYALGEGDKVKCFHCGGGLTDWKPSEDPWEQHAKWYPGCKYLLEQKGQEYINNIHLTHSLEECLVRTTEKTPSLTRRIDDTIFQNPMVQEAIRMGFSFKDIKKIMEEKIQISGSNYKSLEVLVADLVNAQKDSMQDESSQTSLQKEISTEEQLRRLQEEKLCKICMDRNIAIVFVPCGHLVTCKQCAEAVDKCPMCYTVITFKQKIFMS
T1 sequence (P02768 25-609): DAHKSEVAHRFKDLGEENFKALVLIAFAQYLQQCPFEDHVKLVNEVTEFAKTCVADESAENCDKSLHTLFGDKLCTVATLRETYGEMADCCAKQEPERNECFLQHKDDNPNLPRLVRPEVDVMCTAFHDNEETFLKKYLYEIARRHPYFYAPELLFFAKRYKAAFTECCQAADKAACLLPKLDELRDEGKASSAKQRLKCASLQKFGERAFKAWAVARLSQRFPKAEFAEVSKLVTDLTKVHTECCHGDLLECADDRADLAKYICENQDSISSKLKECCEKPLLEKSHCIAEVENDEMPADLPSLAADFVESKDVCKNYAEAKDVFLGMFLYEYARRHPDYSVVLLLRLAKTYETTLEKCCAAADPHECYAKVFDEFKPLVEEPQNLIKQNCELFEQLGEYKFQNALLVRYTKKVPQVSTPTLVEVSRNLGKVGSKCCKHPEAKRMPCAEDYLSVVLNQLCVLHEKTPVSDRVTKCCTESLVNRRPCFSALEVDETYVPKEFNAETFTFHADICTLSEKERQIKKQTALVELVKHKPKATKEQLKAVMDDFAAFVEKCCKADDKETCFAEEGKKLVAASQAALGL
Chain of cIAP1 (Q13490 whole entry): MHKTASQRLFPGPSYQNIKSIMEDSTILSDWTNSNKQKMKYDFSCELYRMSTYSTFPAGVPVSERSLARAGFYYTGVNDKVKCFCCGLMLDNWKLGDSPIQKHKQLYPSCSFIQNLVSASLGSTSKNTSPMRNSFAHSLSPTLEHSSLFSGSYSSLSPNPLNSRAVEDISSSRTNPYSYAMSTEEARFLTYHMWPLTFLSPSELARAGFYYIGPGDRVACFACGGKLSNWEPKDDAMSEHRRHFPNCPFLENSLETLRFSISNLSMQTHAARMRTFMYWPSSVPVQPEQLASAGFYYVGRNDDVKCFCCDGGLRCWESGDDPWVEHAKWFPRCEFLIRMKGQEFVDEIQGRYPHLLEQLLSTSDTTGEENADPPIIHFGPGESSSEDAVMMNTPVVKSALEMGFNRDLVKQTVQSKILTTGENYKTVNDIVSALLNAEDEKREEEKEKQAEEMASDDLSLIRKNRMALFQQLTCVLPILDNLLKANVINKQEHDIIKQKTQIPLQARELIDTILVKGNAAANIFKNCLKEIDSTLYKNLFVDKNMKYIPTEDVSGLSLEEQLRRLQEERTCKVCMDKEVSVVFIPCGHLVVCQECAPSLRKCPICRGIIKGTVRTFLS
Description for CRBN: (§1) To evaluate the capability of our panel of hetero-PROTACs for E3 ligase degradation, VHL19, VHL30, CRBN, cIAP1, cIAP2, and XIAP levels were quantified by western blot analyses. […] SDS-PAGE was performed, and proteins were then transferred onto PVDF membranes. Blotted membranes were blocked with 5% milk in Tris-buffered saline/Tween20 (TBST). Primary antibodies were diluted in 5% BSA in TBST, and incubations were performed overnight at 4 °C. Secondary HRP-conjugated antibodies diluted in 5% milk were incubated for 1 h at room temperature. Detection of proteins on PVDF was carried out using the WesternBright ECL HRP substrate or the WesternBright Sirius HRP substrate (Advansta, San Jose, USA) and imaged with LAS 4000× (Fujifilm). Membranes were subjected to 10 min incubation with Restore Western Blot Stripping Buffer (Thermo Fisher Scientific, Waltham, USA), followed by TBST washes. After brief re-activation with methanol, the membranes were blocked, and further probing of proteins was carried out.
(§2) Quantification of blots was performed using ImageJ software (National Institutes of Health).
Description for IKZF3: as §1, §2

On to `CN[C@@H](C)C(=O)N[C@H](C(=O)N1C[C@@H](Oc2cccc(OCCCCOCCCCNc3cccc4c3C(=O)N(C3CCC(=O)NC3=O)C4=O)c2)C[C@H]1C(=O)N[C@@H]1CCCc2ccccc21)C1CCCCC1` (stereo partly drawn) [PROTAC 22, (2S,4S)-1-((S)-2-Cyclohexyl-2-((S)-2-(methylamino)propanamido)acetyl)-4-(3-(4-(4-((2-(2,6-dioxopiperidin-3-yl)-1,3-dioxoisoindolin-4-yl)amino)butoxy)butoxy)phenoxy)-N-((R)-1,2,3,4-tetrahydronaphthalen-1-yl)pyrrolidine-2-carboxamide], for which the “IAP degradation profile (in words)” value in data set [1] is “pronounced pan-IAP depletion”. The fraction unbound at 0.5 mg/mL in data set [2] is 0.04. The compound further had a chromatographic logD in data set [3] of 4.9. For the same compound, the remaining activity at 0.1 µM at XIAP was determined as 2%; on CRBN, 77%; on cIAP1, 3%; on cIAP2, 7%. In the data set on IKZF3 (16 h, 1 μM), the “IKZF3 degradation (in words)” value is “substantial IKZF3 degradation at 1 μM”. In the data set on IKZF3, the “%remaining protein IKZF3” value was found to be 61%. Besides, in the data set on IKZF3 (16 h treatment, 0.1 μM), the IKZF3 degraded entry was “approximately 40%”.
In the case of `CN[C@@H](C)C(=O)N[C@H](C(=O)N1C[C@@H](Oc2cccc(OCCOCCOCCOCCNc3cccc4c3C(=O)N(C3CCC(=O)NC3=O)C4=O)c2)C[C@H]1C(=O)N[C@@H]1CCCc2ccccc21)C1CCCCC1` (stereo partly drawn) [PROTAC 24, (2S,4S)-1-((S)-2-Cyclohexyl-2-((S)-2-(methylamino)propanamido)acetyl)-4-(3-(2-(2-(2-(2-((2-(2,6-dioxopiperidin-3-yl)-1,3-dioxoisoindolin-4-yl)amino)ethoxy)ethoxy)ethoxy)ethoxy)phenoxy)-N-((R)-1,2,3,4-tetrahydronaphthalen-1-yl)pyrrolidine-2-carboxamide], the fraction unbound at 0.5 mg/mL in data set [2] was 0.06. Besides, in data set [3], the chromatographic logD is 3.9. Further, the remaining activity at 0.1 µM was 2% on XIAP, 86% on CRBN, 4% on cIAP1 and 8% at cIAP2. In addition, the “%remaining protein IKZF3” value in the data set with IKZF3 is 95%.

For orientation: chromatographic logD means a lipophilicity value derived from retention on a column. A lower chromatographic logD goes with a more hydrophilic compound.

These data come from paper PMC10108347, “Heterobifunctional Ligase Recruiters Enable pan-Degradation of Inhibitor of Apoptosis Proteins” (Journal of Medicinal Chemistry, 2023).
